Assay results taken from patent US20240254119A1 (THIRD HARMONIC BIO, INC., priority 2022, published 2024).

Columns and labels:
[1] = Caco-2 permeability assay; assay type: in vitro ADME; details: human
Method in brief: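 Compound at 2.00 μM was run A→B and B→A in duplicate through Caco-2 layers (HBSS, 10.0 mM HEPES, pH 7.40; 37 °C, 2 h; final DMSO under 1%). Donor and receiver levels measured by LC-MS/MS gave Papp, efflux ratio (BA/AB) and recovery; lucifer yellow confirmed integrity.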

MDR1 = target: T1, MDR1 (Homo sapiens, UniProt P08183); experiment: Permeability in MDR1-MDCKII cells; assay type: in vitro ADME; details: dog, MDCK-MDR1, pH 7.4
T1 construct: host or cells: MDCKII (canine kidney) cells
T1 sequence (P08183 whole entry): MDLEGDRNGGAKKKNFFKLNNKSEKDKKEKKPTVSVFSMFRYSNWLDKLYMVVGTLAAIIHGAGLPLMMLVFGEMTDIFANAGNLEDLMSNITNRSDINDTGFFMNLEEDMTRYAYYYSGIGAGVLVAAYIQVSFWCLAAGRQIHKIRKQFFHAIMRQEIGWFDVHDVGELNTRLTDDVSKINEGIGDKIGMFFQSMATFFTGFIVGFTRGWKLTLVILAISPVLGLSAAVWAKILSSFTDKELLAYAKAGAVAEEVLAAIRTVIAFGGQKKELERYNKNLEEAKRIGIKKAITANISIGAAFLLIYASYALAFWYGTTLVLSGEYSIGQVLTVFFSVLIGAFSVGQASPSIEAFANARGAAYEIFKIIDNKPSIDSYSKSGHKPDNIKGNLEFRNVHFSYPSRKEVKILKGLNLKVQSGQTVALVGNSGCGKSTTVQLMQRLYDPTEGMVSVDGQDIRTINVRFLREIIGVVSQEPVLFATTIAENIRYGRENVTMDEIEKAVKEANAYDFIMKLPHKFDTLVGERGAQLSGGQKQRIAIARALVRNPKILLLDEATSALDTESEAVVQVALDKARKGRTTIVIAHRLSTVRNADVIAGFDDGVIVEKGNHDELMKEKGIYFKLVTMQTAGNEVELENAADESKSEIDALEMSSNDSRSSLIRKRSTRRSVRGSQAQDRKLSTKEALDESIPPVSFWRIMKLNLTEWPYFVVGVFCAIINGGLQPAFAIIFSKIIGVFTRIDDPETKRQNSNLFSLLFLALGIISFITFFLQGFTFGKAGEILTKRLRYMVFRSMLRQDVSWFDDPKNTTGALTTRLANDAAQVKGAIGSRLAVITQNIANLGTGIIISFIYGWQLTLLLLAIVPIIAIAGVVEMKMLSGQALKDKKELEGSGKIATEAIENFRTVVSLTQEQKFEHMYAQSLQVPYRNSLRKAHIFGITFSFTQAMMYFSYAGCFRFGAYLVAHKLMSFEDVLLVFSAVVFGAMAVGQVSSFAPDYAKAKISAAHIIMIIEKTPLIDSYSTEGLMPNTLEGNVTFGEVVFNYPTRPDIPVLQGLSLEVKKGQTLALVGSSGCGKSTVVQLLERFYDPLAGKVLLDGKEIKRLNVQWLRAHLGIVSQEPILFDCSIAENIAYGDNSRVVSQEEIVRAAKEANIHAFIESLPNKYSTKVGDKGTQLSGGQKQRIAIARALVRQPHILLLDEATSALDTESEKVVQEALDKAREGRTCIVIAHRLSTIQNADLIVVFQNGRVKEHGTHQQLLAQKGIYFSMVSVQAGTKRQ
Procedure: Exemplary compounds were tested for cell permeability in Caco-2, MDCKII-MDR1 and MDCKII-BCRP cell lines with efflux transporter engagement inferred from the efflux ratios determined. Procedures and results are described below. […] This feature of certain compounds is in part due to efflux transporter engagement. See, for instance, exemplary such compounds included in data tables below.
MDR1-MDCKII cells (obtained from Piet Borst at the Netherlands Cancer Institute) were seeded onto […] membranes (PET) in 96-well insert systems at 2.5×10^5 cells/mL until to 4-7 days for confluent cell monolayer formation.
Test compounds were diluted with the transport buffer (HBSS with 10 mM Hepes, pH7.4) from DMSO stock solution to a concentration of 2.00 μM (DMSO<1%) and applied to the apical or basolateral side of the cell monolayer. Permeation of the test compounds from A to B direction or B to A direction was determined in duplicate. Digoxin was tested at 10.0 μM from A to B direction or B to A direction as well, while nadolol and metoprolol were tested at […] in A to B direction in duplicate. The plate was incubated for 2.5 hours in CO2 incubator at 37±1° C., with 5% CO2 at saturated humidity without shaking. In addition, the efflux ratio of each compound was also determined. Test and reference compounds were quantified by LC-MS/MS analysis based on the peak area ratio of analyte/IS.
After transport assay, Lucifer yellow rejection assay are applied to determine the cell monolayer integrity. Buffers are removed from both apical and basolateral chambers, followed by the addition of 75 μL of 100 μM lucifer yellow in transport buffer and 250 μL transport buffer in apical and basolateral chambers, respectively. The plate is incubated for 30 minutes at 37° C. with 5% CO2 and saturated humidity without shaking. After 30 minutes incubation, 20 μL of lucifer yellow samples are taken from the apical sides, followed by the addition of 60 μL of Transport Buffer. And then 80 μL of lucifer yellow samples are taken from the basolateral sides. The relative fluorescence unit (RFU) of lucifer yellow is measured at 425/528 nm (excitation/emission) with an Envision plate reader.
The apparent permeability coefficient Papp (cm/s) was calculated using the equation: […]
Where dCr/dt is the cumulative concentration of compound in the receiver chamber as a function of time (μM/s); Vr is the solution volume in the receiver chamber (0.075 mL on the apical side, 0.25 mL on the basolateral side); A is the surface area for the transport, i.e. 0.0804 cm^2 for the area of the monolayer; C0 is the initial concentration in the donor chamber (μM). The efflux ratio was calculated using the equation: […]
Where Vd is the volume in the donor chambers (0.075 mL on the apical side, 0.25 mL on the basolateral side); Cd and Cr are the final concentrations of transport compound in donor and receiver chambers, respectively.

Cc1ccc(-c2noc([C@H]3C[C@@H]3F)n2)cc1NC(=O)c1cnc2cc(COCC(C)(C)O)ccn12 [Compound I-71, N-[5-[5-[(1R,2S)-2-fluorocyclopropyl]-1,2,4-oxadiazol-3-yl]-2-methyl-phenyl]-7-[(2-hydroxy-2-methyl-propoxy)methyl]imidazo[1,2-a]pyridine-3-carboxamide]
efflux ratio at 2 h, 2 μM ([1]; Caco-2, pH 7.4): 6.78 | Papp A→B at 2 h, 2 μM ([1]; pH 7.4, Caco-2, apical to basolateral): 6.65 ×10⁻⁶ cm/s | efflux ratio at 2.5 h, 2 μM (MDR1; MDCKII-MDR1): 5.15 | Papp A→B at 2.5 h, 2 μM (MDR1; MDCKII-MDR1, apical to basolateral): 5.94 ×10⁻⁶ cm/s
